Converted amounts (≈) assume the structure as drawn.
Test: physchem
Conditions: for solubility: 15 °C, aqueous buffer
Procedure: It is very important to control the freely dissolved PAH concentration and keep it unchanged throughout the experiment by equilibrium partitioning from the silicone. […] During the loading of PAHs, individual PAHs were dissolved in methanol (loading solvent) to saturation level. To create the PAHs mixture, the concentration in the loading solution was calculated using partitioning coefficients for each PAH from Gilbert et. al. (2015).^39 Then, cleaned and dried O-rings were added to 50 mL volumes of loading solution kept at 15±1° C. A criterion for successful application of the passive dosing system was ensuring the mass of PAHs dissolved into methanol was much greater than that partitioned into the silicon O-ring which in turn was greater than that partitioned into the MSM^37. After 24, 72 and 128 h, O-ring was removed from each loading batch, and they were transferred into MSM to measure O-ring (Crest) and freely dissolved concentration of each PAH (Cfree) at 0.33, 0.66, 1.33, 2.66, 5.33, 12, 24,48, and 72 h. The partition coefficient between different phases (KMethanol:Oring and KOring:MSM) were obtained using the measured Ctest,initial and Cfree, initial. The obtained partitioning coefficient (KOring:MSM) was applied to calculate the required O-ring volume to avoid depletion (<5%) using the following Equation: […]
With a 5 mL MSM and partitioning coefficients from Table 10, the O-ring volume needed for each PAH and PAH mixture were determined. The initial concentrations of freely dissolved PAHs (Cfree initial) and O-ring concentrations (Ctest) in medium samples were calculated via the approach published by Butler et. al (2013).^37 Finally, for the determination of the losses, freely dissolved concentrations of PAHs were directly measured in medium samples to compare with calculated Cfree initial.
Two controls were included to study biodegradation versus dissolved concentrations. The first control contained 5 mL of strain inoculating suspension in passive doing vials with O-rings to account for losses through volatilization. The second control contained 5 mL of MSM without any strain in passive dosing vials in the presence of O-ring loaded with PAHs to account for losses through […].

| SMILES | Cfree (dissolved concentration measured in MSM) | Cfree initial (freely dissolved concentration) | Ctest initial (O-ring concentration) | losses through volatilization | time after which water concentration decreased due to volatility | solubility | Cfree (dissolved concentration measured in MSM) (MSM) | Cfree initial (freely dissolved concentration) (MSM) | losses through volatilization (control 1, passive dosing vials) | Ctest initial (O-ring concentration) (silicone O-ring) |
| --- | --- | --- | --- | --- | --- | --- | --- | --- | --- | --- |
| c1ccc2ccccc2c1 [Naphthalene] | 17.73 mg/L | 18.31 mg/L | 97.8 mg/L | 19% | about 4 h | 20.5 µg/mL (≈ 160 µM) | – | – | – | – |
| c1ccc2c(c1)ccc1ccccc12 [Phenanthrene] | 0.91 mg/L | 1.01 mg/L | 48.6 mg/L | 0% | – | 1.04 µg/mL (≈ 5.84 µM) | – | – | – | – |
| c1ccc2cc3ccccc3cc2c1 [Anthracene] | – | – | – | – | – | 3.11 µg/mL (≈ 17.4 µM) | 2.66 mg/L | 2.98 mg/L | 4% | 94.1 mg/L |
